Values belong to the molecule of their own block, whether it stands above or below them.
What was measured:
BACE1 [1] = biological target: T1, BACE1 (Homo sapiens, UniProt P56817); experiment: In Vitro Enzymatic BACE FRET (Fluorescence Resonance Energy Transfer) Assay; format: biochemical
Outline: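 Cleavage of a 50 nM internally quenched peptide substrate is followed by fluorescence after a one-hour reaction in acidic acetate buffer, pH 4.2, terminated by Tris.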

BACE1 [2] = biological target: T1, BACE1; experiment: In Vitro BACE Cell-based Assay (HEK cell assay): Aβ40 in conditioned medium of cells stably expressing Amyloid Precursor Protein, sandwich ELISA
Outline: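 Conditioned medium Aβ40 by ELISA: pAb40 capture 3 h 4° C., biotin-6E10 detection 2 h 4° C., Streptavidin-Europium TRF. IC50 fitted from % control.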

[3] = Table IV, class symbols, read-out: BACE1 FRET assay
[4] = Table IV, class symbols, read-out: HEK cell assay
[5] = Table III, IC50's in uM ranges, read-out: BACE1 FRET assay
[6] = Table III, IC50's in uM ranges, read-out: HEK cell assay
[7] = HEK cells, read-out: HEK cell assay
[8] = in vitro BACE FRET enzyme assay, IC50 class symbols, read-out: BACE1 FRET assay
[9] = HEK cell-based assay, Aβ40 in conditioned medium, IC50 class symbols, read-out: HEK cell assay
[10] = Table II, read-out: BACE1 FRET assay
[11] = Table II, Aβ40, 24 h incubation, read-out: HEK cell assay

T1 sequence (P56817 46-501, species assumed): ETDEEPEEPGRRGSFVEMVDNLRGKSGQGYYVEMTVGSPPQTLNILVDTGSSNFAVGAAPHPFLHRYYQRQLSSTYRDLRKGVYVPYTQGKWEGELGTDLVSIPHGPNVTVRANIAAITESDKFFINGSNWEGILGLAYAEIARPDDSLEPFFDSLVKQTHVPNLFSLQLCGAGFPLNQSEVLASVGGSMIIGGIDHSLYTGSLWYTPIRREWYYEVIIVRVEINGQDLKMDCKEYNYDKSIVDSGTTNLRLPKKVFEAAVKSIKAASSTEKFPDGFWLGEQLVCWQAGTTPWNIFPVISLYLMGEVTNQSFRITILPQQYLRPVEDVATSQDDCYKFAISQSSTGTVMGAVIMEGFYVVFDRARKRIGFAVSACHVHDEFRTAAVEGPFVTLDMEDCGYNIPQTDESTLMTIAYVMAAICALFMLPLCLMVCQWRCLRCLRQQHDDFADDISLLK

IC50 (BACE1 [1]; read-out: BACE1 FRET assay): < 0.1 µM
IC50 (BACE1 [2]; read-out: HEK cell assay): 0.1 to 1 µM
Structure (SMILES): CC1(COc2ccc3c(c2)[C@]2(COC(N)=N2)c2cc(-c4ccccc4F)cnc2O3)COC1 [compound 746]

IC50 (BACE1 [1]; [3]): < 0.1 µM
IC50 (BACE1 [2]; [4]): < 0.1 µM
Structure (SMILES): CC(C)C(C)(O)COc1ccc2c(c1)[C@]1(COC(N)=N1)c1cc(-c3cccnc3)ccc1O2 (some centres unmarked) [compound 867]

IC50 (BACE1 [1]; read-out: BACE1 FRET assay): 0.1 to 1 µM
IC50 (BACE1 [2]; read-out: HEK cell assay): 1 to 5 µM
Structure (SMILES): CC(C)(C)C#Cc1ccc2c(c1)C1(COC(N)=N1)c1cc(C#CC(C)(C)C)ccc1O2 [compound 930]

IC50 (BACE1 [1]; [3]): > 5 µM
IC50 (BACE1 [2]; [4]): > 5 µM
Structure (SMILES): CC(C)(C)OC(=O)Cc1ccc2c(c1)[C@@]1(COC(N)=N1)c1cc(Br)ccc1O2 [compound 858]

IC50 (BACE1 [1]; [5]): 0.1 to 1 µM
IC50 (BACE1 [2]; [6]): 1 to 5 µM
Structure (SMILES): NC1=N[C@@]2(CO1)c1cc(C#CC3CC3)ccc1Oc1ccc(Oc3ccccn3)cc12 [compound 211]

IC50 (BACE1 [1]; [3]): 0.1 to 1 µM
IC50 (BACE1 [2]; [4]): 0.1 to 1 µM
Structure (SMILES): NC1=N[C@@]2(CO1)c1cc(C(=O)N3CCCC3)ccc1Oc1ccc(-c3cccnc3)cc12 [compound 872]

IC50 (BACE1 [1]; [5]): 0.1 to 1 µM
IC50 (BACE1 [2]; [6]): 0.1 to 1 µM
Structure (SMILES): NC1=N[C@]2(CO1)c1cc(Oc3ccccn3)ccc1Oc1ccc(-c3cccnc3)cc12 [compound 207]

IC50 (BACE1 [1]; [5]): < 0.1 µM
IC50 (BACE1 [2]; [6]): < 0.1 µM
Structure (SMILES): NC1=N[C@@]2(CO1)c1cc(-c3cccnc3)ccc1Oc1cnc(-c3cccnc3)cc12 [compound 184]

IC50 (BACE1 [1]; [5]): 0.1 to 1 µM
IC50 (BACE1 [2]; [6]): 0.1 to 1 µM
Structure (SMILES): COC(C)(C)C#Cc1ccc2c(c1)[C@@]1(COC(N)=N1)c1cc(-c3cccnc3)cnc1O2 [208a]

IC50 (BACE1 [1]; [3]): 1 to 5 µM
IC50 (BACE1 [2]; [4]): 1 to 5 µM
Structure (SMILES): COc1ccc2c(c1)[C@]1(COC(N)=N1)c1cc(NC(=O)c3ccc(Cl)nc3)ccc1O2 [compound 617]

IC50 (BACE1 [1]; BACE1 FRET assay (uM)): < 0.1 µM
IC50 (BACE1 [2]; HEK cell assay (uM), HEK cells): < 0.1 µM
Structure (SMILES): NC1=N[C@@]2(CO1)c1cc(-c3cccnc3F)ccc1Oc1cnc(-c3ccncc3)cc12 [Example 515, (5S)-7-(2-fluoro-3-pyridinyl)-3-(4-pyridinyl)spiro[chromeno[2,3-c]pyridine-5,4′-[1,3]oxazol]-2′-amine]

IC50 (BACE1 [1]; read-out: BACE1 FRET assay): < 0.1 µM
IC50 (BACE1 [2]; read-out: HEK cell assay): 0.1 to 1 µM
Structure (SMILES): NC1=N[C@@]2(CO1)c1cc(-c3cccnc3)ccc1Oc1cnc(CCC3CC3)cc12 [compound 695]

IC50 (BACE1 [1]; [3]): 1 to 5 µM
IC50 (BACE1 [2]; [4]): 1 to 5 µM
Structure (SMILES): NC1=N[C@@]2(CO1)c1ccccc1Oc1ccc(-c3cc4ccccc4o3)cc12 [compound 587]

IC50 (BACE1 [1]; [3]): 1 to 5 µM
IC50 (BACE1 [2]; [4]): > 5 µM
Structure (SMILES): NC1=N[C@]2(CO1)c1ccccc1Oc1ccc(-c3cncc4ccccc34)cc12 [compound 629]

IC50 (BACE1 [1]; read-out: BACE1 FRET assay): 0.1 to 1 µM
IC50 (BACE1 [2]; read-out: HEK cell assay): 1 to 5 µM
Structure (SMILES): COC(C)(C)C#Cc1cnc2c(c1)[C@@]1(COC(N)=N1)c1cc(-c3cncc(F)c3)ccc1O2 [compound 699]

IC50 (BACE1 [1]; [3]): < 0.1 µM
IC50 (BACE1 [2]; [4]): < 0.1 µM
Structure (SMILES): Cc1ccc(-c2cnc3c(c2)[C@]2(COC(N)=N2)c2cc(C#CC(C)(C)O)ccc2O3)cc1 [compound 579]

IC50 (BACE1 [1]; read-out: BACE1 FRET assay): < 0.1 µM
IC50 (BACE1 [2]; [7]): < 0.1 µM
Structure (SMILES): NC1=N[C@]2(CO1)c1cc(C3=CCOC3)ccc1Oc1ccc(-c3cncnc3)cc12 [compound 448]

IC50 (BACE1 [1]; read-out: BACE1 FRET assay): < 0.1 µM
IC50 (BACE1 [2]; read-out: HEK cell assay): 1 to 5 µM
Structure (SMILES): CC(C)(C)COc1ccc2c(c1)[C@@]1(CSC(N)=N1)c1cc(-c3cncnc3)ccc1O2 [compound 721]

IC50 (BACE1 [1]; [3]): < 0.1 µM
IC50 (BACE1 [2]; [4]): 0.1 to 1 µM
Structure (SMILES): CC(C)(C)COc1ccc2c(c1)[C@]1(COC(N)=N1)c1cc(-c3cnc(Cl)nc3)ccc1O2 [compound 881]

IC50 (BACE1 [1]; [3]): < 0.1 µM
IC50 (BACE1 [2]; [4]): < 0.1 µM
Structure (SMILES): NC1=N[C@@]2(CO1)c1cc(-c3cncnc3)ccc1Oc1cnc(-c3ccccc3)cc12 [compound 546]

IC50 (BACE1 [1]; [5]): < 0.1 µM
IC50 (BACE1 [2]; [6]): < 0.1 µM
Structure (SMILES): COC(C)(C)COc1ccc2c(c1)[C@]1(COC(N)=N1)c1cc(-c3cccnc3)ccc1O2 [compound 149]

IC50 (BACE1 [1]; read-out: BACE1 FRET assay): 0.1 to 1 µM
IC50 (BACE1 [2]; read-out: HEK cell assay): 0.1 to 1 µM
Structure (SMILES): NC1=N[C@]2(CO1)c1ccccc1Oc1ccc(-c3cccnc3)cc12 [compound 684]

IC50 (BACE1 [1]; read-out: BACE1 FRET assay): 0.1 to 1 µM
IC50 (BACE1 [2]; read-out: HEK cell assay): 0.1 to 1 µM
Structure (SMILES): NC1=N[C@]2(CO1)c1cc(Br)ccc1Oc1ccc(-c3cncnc3)cc12 [compound 686]

IC50 (BACE1 [1]; [5]): < 0.1 µM
IC50 (BACE1 [2]; [6]): 0.1 to 1 µM
Structure (SMILES): CC(C)(C)C[C@@H](F)c1ccc2c(c1)[C@]1(COC(N)=N1)c1cc(-c3cncnc3)ccc1O2 [116b, (4S)-2′-((1R)-1-fluoro-3,3-dimethylbutyl)-7′-(5-pyrimidinyl)spiro[1,3-oxazole-4,9′-xanthen]-2-amine]

IC50 (BACE1 [1]; [5]): 1 to 5 µM
IC50 (BACE1 [2]; [6]): 1 to 5 µM
Structure (SMILES): COc1ccc2c(c1)[C@@]1(COC(N)=N1)c1cc(-c3cncnc3)cc(F)c1O2 [152b]

IC50 (BACE1 [1]; read-out: BACE1 FRET assay): < 0.1 µM
IC50 (BACE1 [2]; [7]): < 0.1 µM
Structure (SMILES): CC(C)(F)COc1cnc2c(c1)[C@]1(COC(N)=N1)c1cc(-c3cccnc3)ccc1O2 [compound 450]

IC50 (BACE1 [1]; [3]): < 0.1 µM
IC50 (BACE1 [2]; [4]): < 0.1 µM
Structure (SMILES): NC1=N[C@@]2(CO1)c1cc(-c3ccccc3)ccc1Oc1ncc(N3CCOCC3)cc12 [compound 626]

IC50 (BACE1 [1]; [8]): < 0.1 µM
IC50 (BACE1 [2]; [9]): < 0.1 µM
Structure (SMILES): NC1=N[C@@]2(CO1)c1cc(-c3cccnc3F)ccc1Oc1ccc([C@H]3CCCCO3)cc12 [compound 365]

IC50 (BACE1 [1]; [5]): < 0.1 µM
IC50 (BACE1 [2]; [6]): 0.1 to 1 µM
Structure (SMILES): CC(C)(C)COc1ccc2c(c1)[C@]1(COC(N)=N1)c1cc(-c3cncnc3)cc(F)c1O2 [155b]

IC50 (BACE1 [1]; [3]): > 5 µM
IC50 (BACE1 [2]; [4]): 1 to 5 µM
Structure (SMILES): NC1=N[C@]2(CO1)c1cnccc1Oc1ccc(-c3cccnc3)cc12 [compound 557]

IC50 (BACE1 [1]; [3]): 1 to 5 µM
IC50 (BACE1 [2]; [4]): > 5 µM
Structure (SMILES): CC(C)(C)COc1ccc2c(c1)[C@]1(COC(N)=N1)c1ccccc1O2 [compound 655]

IC50 (BACE1 [1]; [3]): < 0.1 µM
IC50 (BACE1 [2]; [4]): < 0.1 µM
Structure (SMILES): NC1=N[C@]2(CO1)c1cc(CCC3(O)CCC3)ccc1Oc1ccc(-c3cccnc3)cc12 [compound 859]

IC50 (BACE1 [1]; read-out: BACE1 FRET assay): 1 to 5 µM
IC50 (BACE1 [2]; read-out: HEK cell assay): > 5 µM
Structure (SMILES): CC(C)(O)C#Cc1cnc2c(c1)[C@@]1(COC(N)=N1)c1cc(-c3ccccc3)ccc1O2 [compound 709]

IC50 (BACE1 [1]; [5]): 0.1 to 1 µM
IC50 (BACE1 [2]; [6]): 1 to 5 µM
Structure (SMILES): C[C@H]1OC(N)=N[C@]12c1cc(OCC(C)(C)C)ccc1Oc1ccc(-c3cncnc3)cc12 [126c]

IC50 (BACE1 [1]; read-out: BACE1 FRET assay): 1 to 5 µM
IC50 (BACE1 [2]; read-out: HEK cell assay): 1 to 5 µM
Structure (SMILES): COc1ccc2c(c1)[C@@]1(COC(N)=N1)c1cc(-c3cncnc3)cnc1O2 [compound 669]

IC50 (BACE1 [1]; [3]): 1 to 5 µM
IC50 (BACE1 [2]; [4]): 1 to 5 µM
Structure (SMILES): COc1ccc2c(c1)[C@]1(COC(N)=N1)c1cc(NC(=O)[C@H](C)OC)ccc1O2 [compound 535]

IC50 (BACE1 [1]; [3]): 0.1 to 1 µM
IC50 (BACE1 [2]; [4]): 1 to 5 µM
Structure (SMILES): CC(C)(C)COc1ccc2c(c1)[C@]1(COC(N)=N1)c1cc(N3CCCC3)ccc1O2 [compound 815]

IC50 (BACE1 [1]; [8]): > 5 µM
IC50 (BACE1 [2]; [9]): 1 to 5 µM
Structure (SMILES): COc1ccc2c(c1)[C@]1(COC(N)=N1)c1cc(Br)cc(F)c1O2 [compound 377]

IC50 (BACE1 [1]; [10]): 0.1 to 1 µM
IC50 (BACE1 [2]; [11]): 1 to 5 µM
Structure (SMILES): CC(C)(C)COc1ccc2c(c1)[C@]1(COC(N)=N1)c1cc(-c3ccc4[nH]ccc4c3)ccc1O2 [Example 73, (4S)-2′-(2,2-dimethylpropoxy)-7′-(1H-indol-5-yl)spiro[1,3-oxazole-4,9′-xanthen]-2-amine]

IC50 (BACE1 [1]; [10]): 0.1 to 1 µM
IC50 (BACE1 [2]; [11]): 1 to 5 µM
Structure (SMILES): Cc1ccc(-c2ccc3c(c2)[C@@]2(COC(N)=N2)c2cc(OCC(C)(C)C)ccc2O3)cn1 [Example 80, (4S)-2′-(2,2-dimethylpropoxy)-7′-(6-methyl-3-pyridinyl)spiro[1,3-oxazole-4,9′-xanthen]-2-amine]

IC50 (BACE1 [1]; [5]): < 0.1 µM
IC50 (BACE1 [2]; [6]): 0.1 to 1 µM
Structure (SMILES): CC(C)OCCOc1ccc2c(c1)[C@]1(COC(N)=N1)c1cc(-c3cncnc3)ccc1O2 [compound 180]

Structure (SMILES): CC(C)(C)CCOc1ccc2c(c1)[C@]1(COC(N)=N1)c1cc(-c3cncnc3)ccc1O2 [Example 70, (4S)-2′-(3,3-dimethylbutoxy)-7′-(5-pyrimidinyl)spiro[1,3-oxazole-4,9′-xanthen]-2-amine]
IC50 (BACE1 [1]; [10]): < 0.1 µM
IC50 (BACE1 [2]; [11]): 0.1 to 1 µM

IC50 (BACE1 [1]; read-out: BACE1 FRET assay): < 0.1 µM
IC50 (BACE1 [2]; read-out: HEK cell assay): < 0.1 µM
Structure (SMILES): CC1(COc2ccc3c(c2)[C@@]2(COC(N)=N2)c2cc(-c4ccc(F)cc4)cnc2O3)COC1 [compound 775]
